Results reported in patent US12049463B2, “Crystalline form of Tolebrutinib” (GENZYME CORPORATION, priority 2020, dated 2024).
“Also recorded” adds a separate entry of the source. Blank lines part the entries; values can stand above or below the compound they belong to.

Experiments:
Type in all cases: physicochemical
[1] = Physical and chemical stability of Form CSI on storage (purity by UPLC, solid form by XRPD); settings: for Time for which crystalline state doesn't change (stable): open and sealed package
Description: X-ray powder diffraction patterns in the present disclosure were acquired by a Bruker X-ray powder diffractometer. The parameters of the X-ray powder diffraction method of the present disclosure are as follows:
(§1) The related substance in the present disclosure was detected by UPLC and the parameters are shown below.
Said “open packaged” is putting the sample into a glass vial, covering the vial with aluminum foil, and punching 5-10 holes on the foil.
Said “sealed packaged” is putting the sample into a glass vial, capping the vial tightly, and sealing the vial in an aluminum foil bag.
A certain amount of Form CSI of the present disclosure and prior art amorphous were weighed and stored under 25° C./60% RH, 40° C./75% RH and 60° C./75% RH conditions, respectively. The purity and solid form were determined by UPLC and XRPD.

[2] = Stability at high temperature (80° C., purity by UPLC); settings: for Chemical stability in words / Final purity / Purity change: 2 days; for Final purity / Purity change: glass vial with cap; for Initial purity: before storage at 80° C.
Protocol: as §1
Approximately 10 mg of Form CSI of the present disclosure and prior art amorphous were stored at 80° C. for 2 days, and the initial and final purities were determined by UPLC, as shown in Table 11.

[3] = Hygroscopicity by dynamic vapor sorption (DVS); settings: for Weight gain at 80% RH: 25° C.; for Hygroscopicity class: weight gain at 80% RH, Chinese Pharmacopoeia definition
Protocol: Dynamic Vapor Sorption (DVS) was measured via an SMS (Surface Measurement Systems Ltd.) intrinsic DVS instrument. Typical Parameters for DVS test are as follows:
Gas and flow rate: nitrogen, 200 mL/min
RH range: 0% RH to 95% RH
Certain amounts of Form CSI of the present disclosure and prior art amorphous were sampled for hygroscopicity tests using dynamic vapor sorption (DVS) instrument. The weight change at each relative humidity is recorded during the cycle of 0% RH-95% RH-0% RH at 25° C., and the experimental results are listed in Table 12. The DVS plots of Form CSI and amorphous are as depicted in FIG. 8 and FIG. 9, respectively.
Description and definition of hygroscopicity (general notice 9103 drug hygroscopicity test guidelines in 2020 edition of Chinese Pharmacopoeia, experimental condition: 25±1° C., 80±2% RH): […]

[4] = XRPD before and after formulation process; settings: before and after the formulation process
Protocol: According to the formulation and process in Table 13 and Table 14, the drug products were prepared with an appropriate amount of Form CSI of the present disclosure. XRPD were tested before and after formulation.

[5] = 25° C./60% RH, open packaged, 6 months
[6] = 25° C./60% RH, sealed packaged, 6 months
[7] = 40° C./75% RH, open packaged, 6 months
[8] = 40° C./75% RH, sealed packaged, 6 months
[9] = 60° C./75% RH, open packaged, 1 month
[10] = 60° C./75% RH, sealed packaged, 1 month

Chemical purity during storage ([1]; 25° C./60% RH, 6 months): above 99.8%
Time for which crystalline state doesn't change (stable) ([1]; 25° C./60% RH): at least 6 months
Impurity number exceed the qualificated threshold [1, 5]: 0
Purity [1, 5]: 99.81%
Purity change [1, 5]: −0.05%
Solid form [1, 5]: Form CSI
Impurity number exceed the qualificated threshold [1, 6]: 0
Purity [1, 6]: 99.89%
Purity change [1, 6]: 0.03%
Solid form [1, 6]: Form CSI
Chemical purity during storing ([1]; 40° C./75% RH 6 months and 60° C./75% RH 1 month): above 99.8%
Time for which crystalline state doesn't change (stable) ([1]; 40° C./75% RH): at least 6 months
Impurity number exceed the qualificated threshold [1, 7]: 0
Purity [1, 7]: 99.81%
Purity change [1, 7]: −0.05%
Solid form [1, 7]: Form CSI
Impurity number exceed the qualificated threshold [1, 8]: 0
Purity [1, 8]: 99.92%
Purity change [1, 8]: 0.06%
Solid form [1, 8]: Form CSI
Time for which crystalline state doesn't change ([1]; 60° C./75% RH, open or sealed package): at least 1 month
Impurity number exceed the qualificated threshold [1, 9]: 0
Purity [1, 9]: 99.86%
Purity change [1, 9]: 0.00%
Solid form [1, 9]: Form CSI
Impurity number exceed the qualificated threshold [1, 10]: 0
Purity [1, 10]: 99.85%
Purity change [1, 10]: −0.01%
Solid form [1, 10]: Form CSI
Impurity number exceed the qualificated threshold ([1]; Initial (before storage)): 0
Purity ([1]; Initial (before storage)): 99.86%
Time for which chemical purity remains substantially unchanged ([2]; 80° C.): at least 2 days
Chemical stability in words ([2]; 80° C.): basically remains unchanged
Final purity ([2]; 80° C.): 99.95%
Purity change ([2]; 80° C.): 0.01%
Initial purity [2]: 99.94%
Weight gain of Form CSI relative to that of the prior art ([3]; DVS): 1/7
Weight gain at 80% RH ([3]; DVS): 0.53%
Hygroscopicity class [3]: slightly hygroscopic
Physical stability on formulation process (XRPD) [4]: physically stable
SMILES: C=CC(=O)N1CCC[C@@H](n2c(=O)n(-c3ccc(Oc4ccccc4)cc3)c3c(N)nccc32)C1 [Form CSI, (R)-1-(1-acryloylpiperidin-3-yl)-4-amino-3-(4-phenoxyphenyl)-1H-imidazo[4,5-c]pyridin-2(3H)-one]
Impurity content versus the qualificated threshold ([1]; throughout the stability investigation processes): does not exceed the qualificated threshold; also recorded: did not exceed the qualificated threshold

Impurity number exceed the qualificated threshold [1, 5]: 1
Purity [1, 5]: 99.57%
Purity change [1, 5]: −0.23%
Solid form [1, 5]: Amorphous
Impurity number exceed the qualificated threshold [1, 6]: 1
Purity [1, 6]: 99.65%
Purity change [1, 6]: −0.15%
Solid form [1, 6]: Amorphous
Purity decrease ([1]; 40° C./75% RH, open package, 6 months): 3.46%
Impurity number exceed the qualificated threshold [1, 7]: 4
Purity [1, 7]: 96.34%
Purity change [1, 7]: −3.46%
Solid form [1, 7]: Amorphous
Impurity number exceed the qualificated threshold ([1]; 40° C./75% RH, open packaged, 6 months, listed as prior art amorphous): four
Impurity number exceed the qualificated threshold ([1]; 40° C./75% RH, open packaged, 6 months, listed as prior art solid): four
Impurity number exceed the qualificated threshold [1, 8]: 2
Purity [1, 8]: 99.18%
Purity change [1, 8]: −0.62%
Solid form [1, 8]: Amorphous
Purity decrease ([1]; 60° C./75% RH, open package, 1 month): over 6.3%
Impurity number exceed the qualificated threshold [1, 9]: 4
Purity [1, 9]: 93.48%
Purity change [1, 9]: −6.32%
Solid form [1, 9]: Amorphous
Impurity number exceed the qualificated threshold ([1]; 60° C./75% RH, open packaged, 1 month, listed as prior art amorphous): four
Impurity number exceed the qualificated threshold ([1]; 60° C./75% RH, open packaged, 1 month, listed as prior art solid): four
Purity decrease ([1]; 60° C./75% RH, sealed package, 1 month): 2.76%
Impurity number exceed the qualificated threshold [1, 10]: 2
Purity [1, 10]: 97.04%
Purity change [1, 10]: −2.76%
Solid form [1, 10]: Amorphous
Impurity number exceed the qualificated threshold ([1]; 60° C./75% RH, sealed packaged, 1 month, listed as prior art amorphous): two
Impurity number exceed the qualificated threshold ([1]; 60° C./75% RH, sealed packaged, 1 month, listed as prior art solid): two
Impurity number exceed the qualificated threshold ([1]; Initial (before storage)): 1
Purity ([1]; Initial (before storage)): 99.80%
Chemical stability in words ([2]; 80° C.): significant degradation
Final purity ([2]; 80° C.): 98.64%
Purity change ([2]; 80° C.): −1.16%
Initial purity [2]: 99.80%
Weight gain at 80% RH ([3]; DVS, listed as Prior art solid): 3.69%
Weight gain at 80% RH ([3]; DVS, listed as prior art solid): 3.69%
Hygroscopicity class ([3]; listed as prior art solid): hygroscopic
SMILES: C=CC(=O)N1CCC[C@@H](n2c(=O)n(-c3ccc(Oc4ccccc4)cc3)c3c(N)nccc32)C1 [Amorphous, (R)-1-(1-acryloylpiperidin-3-yl)-4-amino-3-(4-phenoxyphenyl)-1H-imidazo[4,5-c]pyridin-2(3H)-one]
